# Reference: patent publication US4052515A, “Method of treating acne with alcohol” (priority 1976, dated 1977)
# Legend:
# [1] = tested on: Comedo homogenate lypolytic activity; test: Lypolytic activity of comedo homogenate supernatant, tributyrin turbidity; assay type: biochemical; settings: tributyrin 0.05% substrate
# Protocol: Comedones are collected from the face of subjects with varying degrees of acne and homogenized in 0.05M phosphate buffer, pH 8.1. The mixture is centrifuged and the supernatant is used to measure lypolytic activity.
# (§1) Tributyrin (0.05%) is dispersed in the phosphate buffered solutions by sonication, the alcohol is added, and then an aliquot of the enzyme solution added. The decrease in turbidity is measured spectrophotometrically. Inhibitory activity is determined by comparing initial rates of change.
# [2] = tested on: Corynebacterium acne lysate supernatant lypolytic activity; test: Lypolytic activity of C. acne lysate supernatant, tributyrin turbidity; assay type: biochemical; settings: for Percent Inhibition C. Acne: tributyrin 0.05% substrate, initial rates of turbidity change; for Effect on inhibiting the hydrolysis of the tributyrin: summary in words for C. acne and comedo homogenate
# Protocol: Cells of a pure culture of Corynebacterium acne are collected, lysed in 0.05M phosphate buffer and centrifuged. The resultant supernatant is also used to measure lypolytic activity.
# as §1
# [3] = Topical application of compositions to skin affected by acne; assay type: in vivo; settings: 3 to 10 milligrams composition per square centimeter of skin, about 3 weeks
# Text: When treating acne it is preferred that a regimen involving multiple applications of the composition over a period of days or weeks be employed. The amount of the composition applied to the affected areas which constitutes an effective amount will vary depending on the particular person and degree of acne. It is preferred that the composition be applied to the affected areas at a rate of 3 milligrams of composition per square centimeter to 10 milligrams composition per square centimeter of treated tissue.
# The above compositions show an anti-acne effect when topically applied to skin areas so affected at a rate of between 3 to 10 milligrams composition per square centimeter of skin over a period of about 3 weeks.
# [4] = tested on: Pityrosporum ovale whole cell lipase activity; test: Whole cell lipase activity, pH stat; assay type: cell-based; settings: for Percent Inhibition Tributyrin / Percent Inhibition Triolein: P. Ovale, alcohol 0.5mMoles; for Percent Inhibition Tributyrin: tributyrin substrate; for Percent Inhibition Triolein: triolein substrate; for Inhibitory activity against different types and strains of skin microorganisms and substrates: summary in words over all strains and both substrates
# Protocol: Cells from three strains of C.Acnes and one strain of Pityrosporum ovale are collected and whole cells used to measure lipase activity. Tributyrin and triolein are used as substrates by dispersing them in a histidine-buffered system by sonication and measuring the acid changes with a pH stat. Alcohols are added to the substrate at a level of 0.5mMoles.
# [5] = tested on: P. Ovale cells and artificial sebum lipid; test: Irritation by artificial sebum plus P. Ovale cells on guinea pig back; assay type: in vivo, guinea pigs; settings: for Average Irritation Grade: graded after 5 days, scale 0-4, 4 most severe, 0% control 2.0; for Reduction of irritation produced by P. Ovale cells and artificial sebum lipid: summary in words
# Protocol: (§2) A lipid mixture resembling human sebum in composition, but lacking free fatty acids, is applied to the back of guinea pigs along with an inoculum of P. Ovale cells. Alcohol is added to the artificial sebum lipid at concentrations of 1 and 5%. Irritation is graded after 5 days on a scale of 0-4, 4 being most severe.
# [6] = tested on: P. Ovale cells and artificial sebum lipid; test: Parallel experiment: irritation and free fatty acid in artificial sebum after 5 days; assay type: in vivo, guinea pigs; settings: for Irritation Grade: after 5 days, control 3; for % Free Fatty Acids: lipids extracted after 5 days, control 12.5
# Protocol: as §2
# In a parallel experiment, 1-octanol is mixed in the artificial sebum in varying ratios. After 5 days the lipids are extracted and the quantity of free fatty acid determined.
# [7] = Stoler disclosure; cited from earlier work
# [8] = 1.0% alcohol in artificial sebum
# [9] = 5.0% alcohol in artificial sebum
smiles,measurement,setting,value
"CCCCO [1-butanol, reference compound]",Percent Inhibition Comedo Homogenate,[1]; 0.1% alcohol,0%
same,Percent Inhibition C. Acne,[2]; 0.1% alcohol,0%
same,Effect on inhibiting the hydrolysis of the tributyrin,[2],no measurable effect
CCCCCCCCCCO [1-decanol],Anti-acne effect,[3],substantially the same results
same,Percent Inhibition Tributyrin,[4],63%
same,Percent Inhibition Triolein,[4],24%
same,Inhibitory activity against different types and strains of skin microorganisms and substrates,[4],broad inhibitory activity
same,Average Irritation Grade,[5]; [8],1.3
same,Average Irritation Grade,[5]; [9],0.6
same,Reduction of irritation produced by P. Ovale cells and artificial sebum lipid,[5],able to reduce the irritation
CCCCCCCCCCCCO [1-dodecanol],Anti-acne effect,[3],substantially the same results
same,Average Irritation Grade,[5]; [8],1.3
same,Average Irritation Grade,[5]; [9],1.0
same,Reduction of irritation produced by P. Ovale cells and artificial sebum lipid,[5],able to reduce the irritation
CCCCCCCCO [1-octanol],Percent Inhibition Comedo Homogenate,[1]; 0.03% alcohol,20%
same,Percent Inhibition Comedo Homogenate,[1]; 0.1% alcohol,27%
same,Irritation Grade,[6]; alcohol concentration 0.5,2
same,% Free Fatty Acids,[6]; alcohol concentration 0.5,2.5%
same,Irritation Grade,[6]; alcohol concentration 1.0,2
same,% Free Fatty Acids,[6]; alcohol concentration 1.0,1.7%
same,Irritation Grade,[6]; alcohol concentration 5.0,0.5
same,% Free Fatty Acids,[6]; alcohol concentration 5.0,2.5%
same,Percent Inhibition Tributyrin,[4],60%
same,Percent Inhibition Triolein,[4],12%
same,Inhibitory activity against different types and strains of skin microorganisms and substrates,[4],broad inhibitory activity
same,Average Irritation Grade,[5]; [8],0
same,Average Irritation Grade,[5]; [9],0.6
same,Reduction of irritation produced by P. Ovale cells and artificial sebum lipid,[5],able to reduce the irritation
same,Percent Inhibition C. Acne,[2]; 0.03% alcohol,63%
same,Percent Inhibition C. Acne,[2]; 0.1% alcohol,100%
same,Effect on inhibiting the hydrolysis of the tributyrin,[2],positive effect
CCCCCCC(C)O (centres unmarked) [2-octanol],Anti-acne effect,[3],substantially the same results
CCCCCCC=CCCO [3-decen-1-ol],Anti-acne effect,[3],substantially the same results
CCC=CCCO [3-hexen-1-ol],Anti-acne effect,[3],substantially the same results
CCCO [Propanol],Anti-acne effect,[3],substantially the same results
OCc1ccccc1 [benzyl alcohol],Anti-acne agent,[7],an effective anti-acne agent
same,Inhibition of the formation of free fatty acids,[7],effective in inhibiting the formation of free fatty acids
CC(C)O [isopropanol],Anti-acne effect,[3],substantially the same results
